In patent US20080241904A1, “PROCESS FOR PRODUCING ISOMALTOSE AND USES THEREOF” (KABUSHIKI KAISHA HAYASHIBARA SEIBUTSU KAGAKU KENKYUJO, priority 2001, published 2008):

Legend:
[1] = system: α-isomaltosylglucosaccharide-forming enzyme from Bacillus globisporus C9 strain; assay: Specificity of saccharide transferring reaction acceptor, enzyme of Strain C9; type: biochemical; set-up: key: −: no saccharide-transferred product was detected through transferring reaction to acceptor; ±: a saccharide-transferred product was detected in an amount of less than one percent through transfer reaction to acceptor; +: a saccharide-transferred product was detected in an amount of at least one percent but less than ten percent through transferring reaction to acceptor; ++: a saccharide-transferred product was detected in an amount of at least ten percent through transferring reaction to acceptor; settings: 1.6% acceptor, 4% PINE-DEX #100 as donor, one unit/g donor, 30° C., pH 6.0, 24 hours; GLC or HPLC
Procedure: (§1) Using different saccharides, it was tested whether the saccharides were used as saccharide transferring reaction acceptors for the α-isomaltosylglucosaccharide-forming enzyme. A 1.6% solution, as a solution of saccharide transferring reaction acceptor, of D-glucose, D-xylose, L-xylose, D-galactose, D-fructose, D-mannose, D-arabinose, D-fucose, L-sorbose, L-rhamnose, methyl-α-glucopyranoside (methyl-α-glucose), methyl-β-glucopyranoside ([…]), N-acetyl-glucosamine, sorbitol, α,α-trehalose, isomaltose, isomaltotriose, cellobiose, gentibiose, maltitol, lactose, sucrose, α-cyclodextrin, β-cyclodextrin, or γ-cyclodextrin, was prepared. To each solution with a saccharide concentration was added “PINE-DEX #100”, a partial starch hydrolysate, as a saccharide donor, to give a concentration of 4%, and admixed with one unit/g saccharide donor, d.s.b., of either of purified specimens of α-isomaltosylglucosaccharide-forming enzyme from Bacillus globisporus C9 strain obtained by the method in Experiment 2-1, Bacillus globisporus C11 strain obtained by the method in Experiment 4-1. The resulting mixture solutions were incubated at 30° C. and pH 6.0 except that the enzyme from Arthrobacter globiformis A19 strain was incubated at pH 8.4 for 24 hours. The reaction mixtures of the post-enzymatic reactions were analyzed on gas chromatography (abbreviated as “GLC” hereinafter) for monosaccharides and disaccharides as acceptors, and on HPLC for trisaccharides as acceptors to confirm whether these saccharides could be used as their saccharide transferring reaction acceptors. In the case of performing GLC, the following apparatuses and conditions are used: GLC apparatus, “GC-16A” commercialized by Shimadzu Corporation, Tokyo, Japan; column, a stainless-steel column, 3 mm in diameter and 2 m in length, packed with 2% “SILICONE OV-17/CHROMOSOLV W”, commercialized by GL Sciences Inc., Tokyo, Japan; carrier gas, nitrogen gas at a flow rate of 40 ml/min under temperature conditions of increasing from 160° C. to 320° C. at an increasing temperature rate of 7.5° C./min; and detection, a hydrogen flame ionization detector.
(§2) In the case of HPLC analysis, the apparatuses and conditions used were: HPLC apparatus, “CCPD” commercialized by Tosoh Corporation, Tokyo, Japan; column, “ODS-AQ-303” commercialized by YMC Co., Ltd., Tokyo, Japan; eluent, water at a flow rate of 0.5 ml/min; and detection, a differential refractometer.

[2] = system: α-isomaltosylglucosaccharide-forming enzyme from Bacillus globisporus C11 strain; assay: Specificity of saccharide transferring reaction acceptor, enzyme of Strain C11; type: biochemical; set-up: key: −: no saccharide-transferred product was detected through transferring reaction to acceptor; ±: a saccharide-transferred product was detected in an amount of less than one percent through transfer reaction to acceptor; +: a saccharide-transferred product was detected in an amount of at least one percent but less than ten percent through transferring reaction to acceptor; ++: a saccharide-transferred product was detected in an amount of at least ten percent through transferring reaction to acceptor; settings: 1.6% acceptor, 4% PINE-DEX #100 as donor, one unit/g donor, 30° C., pH 6.0, 24 hours; GLC or HPLC
Procedure: as §1, §2

Compound	Product of saccharide transferring reaction, Enzyme of Strain C9 [1]	Product of saccharide transferring reaction, Enzyme of Strain C11 [2]
O=C[C@H](O)[C@@H](O)[C@@H](O)[C@H](O)CO [D-Galactose, D-galactose]	+ (a saccharide-transferred product was detected in an amount of at least one percent but less than ten percent through transferring reaction to acceptor)	+ (a saccharide-transferred product was detected in an amount of at least one percent but less than ten percent through transferring reaction to acceptor)
OC[C@H]1O[C@@H]2O[C@H]3[C@H](O)[C@@H](O)[C@@H](O[C@H]4[C@H](O)[C@@H](O)[C@@H](O[C@H]5[C@H](O)[C@@H](O)[C@@H](O[C@H]6[C@H](O)[C@@H](O)[C@@H](O[C@H]7[C@H](O)[C@@H](O)[C@@H](O[C@H]8[C@H](O)[C@@H](O)[C@@H](O[C@H]1[C@H](O)[C@H]2O)O[C@@H]8CO)O[C@@H]7CO)O[C@@H]6CO)O[C@@H]5CO)O[C@@H]4CO)O[C@@H]3CO [β-Cyclodextrin, β-cyclodextrin]	−	−
CO[C@@H]1O[C@H](CO)[C@@H](O)[C@H](O)[C@H]1O [Methyl-β-glucopyranoside, methyl-β-glucopyranoside]	++ (a saccharide-transferred product was detected in an amount of at least ten percent through transferring reaction to acceptor)	++ (a saccharide-transferred product was detected in an amount of at least ten percent through transferring reaction to acceptor)
O=C(CO)[C@@H](O)[C@H](O)[C@@H](O)CO [L-Sorbose, L-sorbose]	+ (a saccharide-transferred product was detected in an amount of at least one percent but less than ten percent through transferring reaction to acceptor)	+ (a saccharide-transferred product was detected in an amount of at least one percent but less than ten percent through transferring reaction to acceptor)
O=C(CO)[C@@H](O)[C@H](O)[C@H](O)CO [D-Fructose, D-fructose]	+ (a saccharide-transferred product was detected in an amount of at least one percent but less than ten percent through transferring reaction to acceptor)	+ (a saccharide-transferred product was detected in an amount of at least one percent but less than ten percent through transferring reaction to acceptor)
O=C[C@H](O)[C@@H](O)[C@H](O)[C@H](O)CO [D-Glucose, D-glucose]	+ (a saccharide-transferred product was detected in an amount of at least one percent but less than ten percent through transferring reaction to acceptor)	+ (a saccharide-transferred product was detected in an amount of at least one percent but less than ten percent through transferring reaction to acceptor)
O=C[C@@H](O)[C@@H](O)[C@H](O)[C@H](O)CO [D-Mannose, D-mannose]	−	−
OC[C@H]1O[C@@H]2O[C@H]3[C@H](O)[C@@H](O)[C@@H](O[C@H]4[C@H](O)[C@@H](O)[C@@H](O[C@H]5[C@H](O)[C@@H](O)[C@@H](O[C@H]6[C@H](O)[C@@H](O)[C@@H](O[C@H]7[C@H](O)[C@@H](O)[C@@H](O[C@H]1[C@H](O)[C@H]2O)O[C@@H]7CO)O[C@@H]6CO)O[C@@H]5CO)O[C@@H]4CO)O[C@@H]3CO [α-Cyclodextrin, α-cyclodextrin]	−	−
O=C[C@@H](O)[C@H](O)[C@@H](O)CO [L-Xylose, L-xylose]	++ (a saccharide-transferred product was detected in an amount of at least ten percent through transferring reaction to acceptor)	++ (a saccharide-transferred product was detected in an amount of at least ten percent through transferring reaction to acceptor)
C[C@@H](O)[C@H](O)[C@H](O)[C@@H](O)C=O [D-Fucose, D-fucose]	+ (a saccharide-transferred product was detected in an amount of at least one percent but less than ten percent through transferring reaction to acceptor)	+ (a saccharide-transferred product was detected in an amount of at least one percent but less than ten percent through transferring reaction to acceptor)
OC[C@H]1O[C@@H]2O[C@H]3[C@H](O)[C@@H](O)[C@@H](O[C@H]4[C@H](O)[C@@H](O)[C@@H](O[C@H]5[C@H](O)[C@@H](O)[C@@H](O[C@H]6[C@H](O)[C@@H](O)[C@@H](O[C@H]7[C@H](O)[C@@H](O)[C@@H](O[C@H]8[C@H](O)[C@@H](O)[C@@H](O[C@H]9[C@H](O)[C@@H](O)[C@@H](O[C@H]1[C@H](O)[C@H]2O)O[C@@H]9CO)O[C@@H]8CO)O[C@@H]7CO)O[C@@H]6CO)O[C@@H]5CO)O[C@@H]4CO)O[C@@H]3CO [γ-Cyclodextrin, γ-cyclodextrin]	−	−
O=C[C@@H](O)[C@H](O)[C@H](O)CO [D-Arabinose, D-arabinose]	± (a saccharide-transferred product was detected in an amount of less than one percent through transfer reaction to acceptor)	± (a saccharide-transferred product was detected in an amount of less than one percent through transfer reaction to acceptor)
O=C[C@H](O)[C@@H](O)[C@H](O)CO [D-Xylose, D-xylose]	++ (a saccharide-transferred product was detected in an amount of at least ten percent through transferring reaction to acceptor)	++ (a saccharide-transferred product was detected in an amount of at least ten percent through transferring reaction to acceptor)
CC(=O)N[C@H]1C(O)O[C@H](CO)[C@@H](O)[C@@H]1O (stereo partly shown) [N-Acetyl-glucosamine, N-acetyl-glucosamine]	+ (a saccharide-transferred product was detected in an amount of at least one percent but less than ten percent through transferring reaction to acceptor)	+ (a saccharide-transferred product was detected in an amount of at least one percent but less than ten percent through transferring reaction to acceptor)
OC[C@@H](O)[C@@H](O)[C@H](O)[C@@H](O)CO [Sorbitol, sorbitol]	−	−
CO[C@H]1O[C@H](CO)[C@@H](O)[C@H](O)[C@H]1O [Methyl-α-glucopyranoside, methyl-α-glucopyranoside]	++ (a saccharide-transferred product was detected in an amount of at least ten percent through transferring reaction to acceptor)	++ (a saccharide-transferred product was detected in an amount of at least ten percent through transferring reaction to acceptor)
C[C@H](O)[C@H](O)[C@@H](O)[C@@H](O)C=O [L-Rhamnose, L-rhamnose]	−	−
